The subject of this data set is human intestinal microsomes. The data set is described as follows: Stability of simvastatin in human intestinal microsomes (first intestinal passage effect). Particulars: 1 mg/ml microsomes, 37° C., 12 μmol. As to the method: The test is carried out in vitro using human intestinal microsomes containing:
0.09 nmol/mg of cytochromes P450,
0.77 nmol/min/mg of cytochromes P450 3 A 4.
1 mg/ml of microsomes is then placed in contact:
with a regenerating system having the following composition:
followed by equilibration at 37° C. for 3 minutes.
100 μl aliquots are mixed with a solution of 400 μl of a 50/50 mixture of ice and acetonitrile at 0, 15, 30, 60, 120 and 180 minutes. Testosterone is tested in parallel as control component.
The conditions for carrying out the HPLC are as follows:
The mass spectrometer used is known under the reference PE SCIEX 150.

Structures are written as SMILES.

`C[C@]12CC[C@H]3[C@@H](CCC4=CC(=O)CC[C@@]43C)[C@@H]1CC[C@@H]2O` [TESTOSTERONE, Testosterone]: the Percentage remaining is on record as 100% (simvastatin (or testosterone control) remaining, time 0 min); “completely disappeared” (time 15 min); 0% (time 180 min).

Source of the values: patent US20040146538A1, “Pharmaceutical composition for oral use comprising an active principle liable to undergo a large first intestinal passage effect” (Gattefosse Holding, priority 2001, published 2004).
